Measured values as given in patent US20220322719A1, “INTESTINAL HEALTH PROMOTING COMPOSITIONS” (NSE Products, Inc., priority 2016, published 2022).

Columns and labels:
Caco-2 cell monolayers = assay: TNFα-induced decrease of transepithelial electrical resistance (TEER) in Caco-2 monolayers; assay type: cell-based; details: FIGS. 17-20
[1] = 500 mg isotopically labeled, single dose, male subjects (n=8); cited from earlier work

Structure (SMILES)	TNFα induced losses of intestinal barrier integrity (TEER) (Caco-2 cell monolayers)	adverse effects [1]	time metabolites were present in the circulation [1]
Oc1cc(O)c2c(c1)OC(c1ccc(O)c(O)c1)C(O)C2 (stereo not drawn) [catechins, catechin]	prevents TNFα induced losses of intestinal barrier integrity	–	–
OC[C@H]1O[C@@H](Oc2cc3c(O)cc(O)cc3[o+]c2-c2ccc(O)c(O)c2)[C@H](O)[C@@H](O)[C@@H]1O [cyanidin-3-glucoside]	–	no adverse effects	less than or equal to 48 hours
